Key:
[1] = system: syngenic and metallothionein-SSAT mice; test: Hepatic, pancreatic and renal polyamine concentration in syngenic and metallothionein-SSAT mice after analogue; assay type: in vivo, mouse; conditions: 24 h before sacrifice
Description: (§1) α-methylspermidine, Bis-α-methylspermine and α-methylspermine were administered in saline. […] The data are expressed as means ±S.D. For statistical analysis, the two-tailed Student's t test was used.

SSAT = test: Hepatic, pancreatic and renal SSAT activity in syngenic and metallothionein-SSAT mice after analogue; assay type: in vivo, mouse; conditions: 24 h before sacrifice
Description: as §1

[2] = Tg (transgenic) mice, 12.5 mg/kg
[3] = Tg (transgenic) mice, 37.5 mg/kg

## CC(N)CCNCCCCNCCC(C)N (stereo not drawn) [bis-α-methylspermine, 1,12-dimethylspermine]
[1]; Sg (syngenic) mice, 12.5 mg/kg
  hepatic concentration, Bis-α-Methylspermine: 159.88 pmoles/mg tissue wet weight
  hepatic polyamine concentration, N^8-Acetylspermidine: 0.75 pmoles/mg tissue wet weight
  hepatic polyamine concentration, Putrescine: 92.42 pmoles/mg tissue wet weight
  hepatic polyamine concentration, Spermidine: 927.28 pmoles/mg tissue wet weight
  hepatic polyamine concentration, Spermine: 708.04 pmoles/mg tissue wet weight
  pancreatic concentration, Bis-α-Methylspermine: 259.30 ± 10.04 pmoles/mg tissue wet weight
  pancreatic polyamine concentration, N^8-Acetylspermidine: 60.41 pmoles/mg tissue wet weight
  pancreatic polyamine concentration, Putrescine: 298.55 ± 75.14 *^+ pmoles/mg tissue wet weight
  pancreatic polyamine concentration, Spermidine: 6575.15 ± 614.21 ^+ pmoles/mg tissue wet weight
  pancreatic polyamine concentration, Spermine: 981.28 ± 201.81 ^+ pmoles/mg tissue wet weight
  renal concentration, Bis-α-Methylspermine: 259.30 pmoles/mg tissue wet weight
  renal polyamine concentration, N^1-Acetylspermidine: 33.17 pmoles/mg tissue wet weight
  renal polyamine concentration, N^8-Acetylspermidine: 17.62 ± 6.43 pmoles/mg tissue wet weight
  renal polyamine concentration, Putrescine: 142.47 pmoles/mg tissue wet weight
  renal polyamine concentration, Spermidine: 246.29 pmoles/mg tissue wet weight
  renal polyamine concentration, Spermine: 456.65 pmoles/mg tissue wet weight
[1]; Sg (syngenic) mice, 25 mg/kg
  hepatic concentration, Bis-α-Methylspermine: 317.22 pmoles/mg tissue wet weight
  hepatic polyamine concentration, N^8-Acetylspermidine: 2.38 pmoles/mg tissue wet weight
  hepatic polyamine concentration, Putrescine: 73.69 pmoles/mg tissue wet weight
  hepatic polyamine concentration, Spermidine: 879.17 pmoles/mg tissue wet weight
  hepatic polyamine concentration, Spermine: 699.86 pmoles/mg tissue wet weight
  pancreatic concentration, Bis-α-Methylspermine: 343.17 ± 35.11 pmoles/mg tissue wet weight
  pancreatic polyamine concentration, Putrescine: 467.21 ± 419.85^++ pmoles/mg tissue wet weight
  pancreatic polyamine concentration, Spermidine: 5733.90 ± 300.80 ^+ pmoles/mg tissue wet weight
  pancreatic polyamine concentration, Spermine: 528.55 ± 241.57 ^+ pmoles/mg tissue wet weight
  renal concentration, Bis-α-Methylspermine: 343.17 pmoles/mg tissue wet weight
  renal polyamine concentration, N^1-Acetylspermidine: 28.39 pmoles/mg tissue wet weight
  renal polyamine concentration, N^8-Acetylspermidine: 17.70 ± 10.63 pmoles/mg tissue wet weight
  renal polyamine concentration, Putrescine: 87.46 pmoles/mg tissue wet weight
  renal polyamine concentration, Spermidine: 257.13 pmoles/mg tissue wet weight
  renal polyamine concentration, Spermine: 459.99 pmoles/mg tissue wet weight
[1]; Sg (syngenic) mice, 37.5 mg/kg
  hepatic concentration, Bis-α-Methylspermine: 283.40 pmoles/mg tissue wet weight
  hepatic polyamine concentration, N^1-Acetylspermidine: 14.57 pmoles/mg tissue wet weight
  hepatic polyamine concentration, N^8-Acetylspermidine: 2.10 pmoles/mg tissue wet weight
  hepatic polyamine concentration, Putrescine: 96.27 pmoles/mg tissue wet weight
  hepatic polyamine concentration, Spermidine: 772.68 pmoles/mg tissue wet weight
  hepatic polyamine concentration, Spermine: 754.59 pmoles/mg tissue wet weight
  pancreatic concentration, Bis-α-Methylspermine: 415.40 ± 92.86 pmoles/mg tissue wet weight
  pancreatic polyamine concentration, N^1-Acetylspermidine: 123.67 pmoles/mg tissue wet weight
  pancreatic polyamine concentration, N^8-Acetylspermidine: 55.34 pmoles/mg tissue wet weight
  pancreatic polyamine concentration, Putrescine: 233.06 ± 45.81 *^+ pmoles/mg tissue wet weight
  pancreatic polyamine concentration, Spermidine: 5997.63 ± 24.26 ^+ pmoles/mg tissue wet weight
  pancreatic polyamine concentration, Spermine: 708.66 ± 179.23 ^++ pmoles/mg tissue wet weight
  renal concentration, Bis-α-Methylspermine: 415.40 pmoles/mg tissue wet weight
  renal polyamine concentration, N^1-Acetylspermidine: 28.73 pmoles/mg tissue wet weight
  renal polyamine concentration, N^8-Acetylspermidine: 15.95 ± 6.92 pmoles/mg tissue wet weight
  renal polyamine concentration, Putrescine: 93.95 pmoles/mg tissue wet weight
  renal polyamine concentration, Spermidine: 289.83 pmoles/mg tissue wet weight
  renal polyamine concentration, Spermine: 513.58 pmoles/mg tissue wet weight
[1]; Sg (syngenic) mice, 50 mg/kg
  hepatic concentration, Bis-α-Methylspermine: 379.77 pmoles/mg tissue wet weight
  hepatic polyamine concentration, N^8-Acetylspermidine: 8.72 pmoles/mg tissue wet weight
  hepatic polyamine concentration, Putrescine: 52.40 pmoles/mg tissue wet weight
  hepatic polyamine concentration, Spermidine: 688.44 pmoles/mg tissue wet weight
  hepatic polyamine concentration, Spermine: 687.71 pmoles/mg tissue wet weight
  pancreatic concentration, Bis-α-Methylspermine: 459.26 ± 18.65 pmoles/mg tissue wet weight
  pancreatic polyamine concentration, N^8-Acetylspermidine: 82.23 pmoles/mg tissue wet weight
  pancreatic polyamine concentration, Putrescine: 297.48 ± 123.94^++ pmoles/mg tissue wet weight
  pancreatic polyamine concentration, Spermidine: 5613.06 ± 608.55 ^++ pmoles/mg tissue wet weight
  pancreatic polyamine concentration, Spermine: 561.50 ± 77.66 ^++ pmoles/mg tissue wet weight
  renal concentration, Bis-α-Methylspermine: 459.26 pmoles/mg tissue wet weight
  renal polyamine concentration, N^8-Acetylspermidine: 21.07 ± 5.81 pmoles/mg tissue wet weight
  renal polyamine concentration, Putrescine: 98.32 pmoles/mg tissue wet weight
  renal polyamine concentration, Spermidine: 248.63 pmoles/mg tissue wet weight
  renal polyamine concentration, Spermine: 424.06 pmoles/mg tissue wet weight
[1]; [2]
  hepatic concentration, Bis-α-Methylspermine: 29.55 pmoles/mg tissue wet weight
  hepatic polyamine concentration, N^1-Acetylspermidine: 226.74 pmoles/mg tissue wet weight
  hepatic polyamine concentration, N^8-Acetylspermidine: 9.43 pmoles/mg tissue wet weight
  hepatic polyamine concentration, Putrescine: 944.38 pmoles/mg tissue wet weight
  hepatic polyamine concentration, Spermidine: 792.81 pmoles/mg tissue wet weight
  hepatic polyamine concentration, Spermine: 104.48 pmoles/mg tissue wet weight
  pancreatic polyamine concentration, N^1-Acetylspermidine: 267.18 pmoles/mg tissue wet weight
  pancreatic polyamine concentration, Putrescine: 6168.51 ± 1253.00 pmoles/mg tissue wet weight
  pancreatic polyamine concentration, Spermidine: 3646.27 ± 367.99 pmoles/mg tissue wet weight
  pancreatic polyamine concentration, Spermine: 187.07 ± 5.15 pmoles/mg tissue wet weight
  renal polyamine concentration, N^1-Acetylspermidine: 19.74 pmoles/mg tissue wet weight
  renal polyamine concentration, N^8-Acetylspermidine: 16.35 ± 1.03 pmoles/mg tissue wet weight
  renal polyamine concentration, Putrescine: 184.32 pmoles/mg tissue wet weight
  renal polyamine concentration, Spermidine: 235.80 pmoles/mg tissue wet weight
  renal polyamine concentration, Spermine: 739.17 pmoles/mg tissue wet weight
[1]; Tg (transgenic) mice, 25 mg/kg
  hepatic concentration, Bis-α-Methylspermine: 105.83 pmoles/mg tissue wet weight
  hepatic polyamine concentration, N^1-Acetylspermidine: 219.53 pmoles/mg tissue wet weight
  hepatic polyamine concentration, N^8-Acetylspermidine: 9.03 pmoles/mg tissue wet weight
  hepatic polyamine concentration, Putrescine: 895.27 pmoles/mg tissue wet weight
  hepatic polyamine concentration, Spermidine: 673.04 pmoles/mg tissue wet weight
  hepatic polyamine concentration, Spermine: 66.74 pmoles/mg tissue wet weight
  pancreatic concentration, Bis-α-Methylspermine: 315.13 ± 82.18 pmoles/mg tissue wet weight
  pancreatic polyamine concentration, N^1-Acetylspermidine: 474.31 pmoles/mg tissue wet weight
  pancreatic polyamine concentration, N^8-Acetylspermidine: 64.06 pmoles/mg tissue wet weight
  pancreatic polyamine concentration, Putrescine: 7573.46 ± 1084.90 pmoles/mg tissue wet weight
  pancreatic polyamine concentration, Spermidine: 3389.87 ± 447.32 pmoles/mg tissue wet weight
  pancreatic polyamine concentration, Spermine: 73.43 ± 6.82 pmoles/mg tissue wet weight
  renal concentration, Bis-α-Methylspermine: 315.13 pmoles/mg tissue wet weight
  renal polyamine concentration, N^1-Acetylspermidine: 25.57 pmoles/mg tissue wet weight
  renal polyamine concentration, N^8-Acetylspermidine: 17.52 ± 3.88 pmoles/mg tissue wet weight
  renal polyamine concentration, Putrescine: 137.26 pmoles/mg tissue wet weight
  renal polyamine concentration, Spermidine: 216.59 pmoles/mg tissue wet weight
  renal polyamine concentration, Spermine: 565.06 pmoles/mg tissue wet weight
[1]; [3]
  hepatic concentration, Bis-α-Methylspermine: 158.82 pmoles/mg tissue wet weight
  hepatic polyamine concentration, N^1-Acetylspermidine: 355.10 pmoles/mg tissue wet weight
  hepatic polyamine concentration, N^8-Acetylspermidine: 19.03 pmoles/mg tissue wet weight
  hepatic polyamine concentration, Putrescine: 1032.66 pmoles/mg tissue wet weight
  hepatic polyamine concentration, Spermidine: 404.05 pmoles/mg tissue wet weight
  hepatic polyamine concentration, Spermine: 74.10 pmoles/mg tissue wet weight
  pancreatic concentration, Bis-α-Methylspermine: 421.62 ± 147.44 pmoles/mg tissue wet weight
  pancreatic polyamine concentration, N^1-Acetylspermidine: 339.96 pmoles/mg tissue wet weight
  pancreatic polyamine concentration, N^8-Acetylspermidine: 90.85 pmoles/mg tissue wet weight
  pancreatic polyamine concentration, Putrescine: 8158.57 ± 2876.94 pmoles/mg tissue wet weight
  pancreatic polyamine concentration, Spermidine: 2268.60 ± 1821.72 pmoles/mg tissue wet weight
  pancreatic polyamine concentration, Spermine: 98.77 ± 82.83 pmoles/mg tissue wet weight
  renal concentration, Bis-α-Methylspermine: 421.62 pmoles/mg tissue wet weight
  renal polyamine concentration, N^1-Acetylspermidine: 27.37 pmoles/mg tissue wet weight
  renal polyamine concentration, N^8-Acetylspermidine: 16.82 ± 4.23 pmoles/mg tissue wet weight
  renal polyamine concentration, Putrescine: 225.66 pmoles/mg tissue wet weight
  renal polyamine concentration, Spermidine: 185.57 pmoles/mg tissue wet weight
  renal polyamine concentration, Spermine: 426.59 pmoles/mg tissue wet weight
[1]; Tg (transgenic) mice, 50 mg/kg
  hepatic concentration, Bis-α-Methylspermine: 300.81 pmoles/mg tissue wet weight
  hepatic polyamine concentration, N^1-Acetylspermidine: 207.30 pmoles/mg tissue wet weight
  hepatic polyamine concentration, N^8-Acetylspermidine: 19.27 pmoles/mg tissue wet weight
  hepatic polyamine concentration, Putrescine: 717.95 pmoles/mg tissue wet weight
  hepatic polyamine concentration, Spermidine: 293.21 pmoles/mg tissue wet weight
  hepatic polyamine concentration, Spermine: 69.63 pmoles/mg tissue wet weight
  pancreatic concentration, Bis-α-Methylspermine: 400.64 ± 63.85 pmoles/mg tissue wet weight
  pancreatic polyamine concentration, N^1-Acetylspermidine: 288.51 pmoles/mg tissue wet weight
  pancreatic polyamine concentration, Putrescine: 5123.85 ± 573.32 pmoles/mg tissue wet weight
  pancreatic polyamine concentration, Spermidine: 2326.21 ± 126.42 pmoles/mg tissue wet weight
  pancreatic polyamine concentration, Spermine: 119.48 ± 37.92 pmoles/mg tissue wet weight
  renal concentration, Bis-α-Methylspermine: 400.64 pmoles/mg tissue wet weight
  renal polyamine concentration, N^8-Acetylspermidine: 12.21 ± 4.20 pmoles/mg tissue wet weight
  renal polyamine concentration, Putrescine: 173.97 pmoles/mg tissue wet weight
  renal polyamine concentration, Spermidine: 204.20 pmoles/mg tissue wet weight
  renal polyamine concentration, Spermine: 481.68 pmoles/mg tissue wet weight
SSAT; Sg (syngenic) mice, 12.5 mg/kg
  SSAT activity, Kidney: 0.32 ± 0.14 ^++ pmoles/10 min/ tissue wet weight
  SSAT activity, Pancreas: 3.38 pmoles/10 min/ tissue wet weight
SSAT; Sg (syngenic) mice, 25 mg/kg
  SSAT activity, Kidney: 0.58 ± 0.43 ^+ pmoles/10 min/ tissue wet weight
  SSAT activity, Pancreas: 4.23 pmoles/10 min/ tissue wet weight
SSAT; Sg (syngenic) mice, 37.5 mg/kg
  SSAT activity, Kidney: 0.33 ± 0.14 ^+ pmoles/10 min/ tissue wet weight
  SSAT activity, Pancreas: 3.18 pmoles/10 min/ tissue wet weight
SSAT; Sg (syngenic) mice, 50 mg/kg
  SSAT activity, Kidney: 0.60 ± 0.19 ^+ pmoles/10 min/ tissue wet weight
  SSAT activity, Pancreas: 8.44 pmoles/10 min/ tissue wet weight
SSAT; [2]
  SSAT activity, Kidney: 0.72 ± 0.24 pmoles/10 min/ tissue wet weight
  SSAT activity, Liver: 6.56 pmoles/10 min/ tissue wet weight
  SSAT activity, Pancreas: 34.11 pmoles/10 min/ tissue wet weight
SSAT; Tg (transgenic) mice, 25 mg/kg
  SSAT activity, Kidney: 1.48 ± 0.92 pmoles/10 min/ tissue wet weight
  SSAT activity, Liver: 9.08 pmoles/10 min/ tissue wet weight
  SSAT activity, Pancreas: 65.20 pmoles/10 min/ tissue wet weight
SSAT; [3]
  SSAT activity, Kidney: 8.04 ± 14.36 pmoles/10 min/ tissue wet weight
  SSAT activity, Liver: 55.79 pmoles/10 min/ tissue wet weight
  SSAT activity, Pancreas: 124.95 pmoles/10 min/ tissue wet weight
SSAT; Tg (transgenic) mice, 50 mg/kg
  SSAT activity, Kidney: 1.24 ± 0.39 pmoles/10 min/ tissue wet weight
  SSAT activity, Liver: 13.11 pmoles/10 min/ tissue wet weight
  SSAT activity, Pancreas: 62.05 pmoles/10 min/ tissue wet weight

Reference: US7202280B2, “Methods for the treatment and prevention of pancreatitis and for induction of liver regeneration” (priority 2002, dated 2007)
